Where two headings read alike, the source gives them in different places.
Assays:
CDK1 = CDK1 (Homo sapiens, UniProt P06493); experiment: Cyclin dependent protein kinase substrate phosphorylation assay, CDK1; format: biochemical; settings: read-out: CDK1 IC50
Protocol: Cyclin dependent protein kinase assays utilized the peptides Biotin-aminohexyl-[…] and Biotin-aminohexyl-[…]-NH2 as phosphoryl group acceptors. CDK1 and CDK2 were both expressed utilizing a baculovirus expression system and were partially purified to comprise 20-80% of total protein, with no detectable competing reactions present. Typically, assays were performed by incubating either enzyme (0.2-10 nM), with and without inhibitor, one of the two peptide substrates ([…]), [γ-^32P]ATP ([…]), and 10-20 mM Mg^2+ for periods of time generally within the range 10-120 min. Reactions were terminated with 0.2-2 volumes of either 20% acetic acid or 50-100 mM EDTA buffered to pH 7 (substrate consumption<20%). The buffer employed in enzyme assays was either 30 mM HEPES 7.4 containing 0.15 M NaCl and 5% DMSO, the buffer 50 mM MOPS 7.0 containing 0.15 M NaCl and 5% DMSO, or the buffer 100 mM HEPES pH 7.5 containing 0.1 mg /mL BSA and 5% DMSO. Inhibitors were diluted in 100% DMSO prior to addition into the assay. Detection of peptide phosphorylation was accomplished by scintillation counting following either collection of peptide onto phosphocellulose filters (for reactions stopped with acetic acid), collection of peptide in wells of 96 well plates coated with Streptavidin (Pierce) (reactions were stopped with EDTA), or addition of Avidin coated Scintillant impregnated beads (Scintillation Proximity Assays from Amersham, reactions were stopped with EDTA).

[1] = tested on: RKO colon adenocarcinoma cells; experiment: FACS assay (cell death by flow cytometry), RKO; format: cell-based, human; settings: 50% cell death, 72 h, read-out: FACS RKO IC50
Protocol: (§1) These assays allow determination of both cell death and changes in cell cycle profile in cells following treatment of the compound. The assay is performend as follows:
(§2) 1. Cells are incubated in DMEM to which 10% FCS has been added in a humidified incubator at 37° C. and 5% by volume of CO2 in air. The cells are innoculated in 6-well plates at a density of 0.5-5×10^5 cells per well.
(§3) 2. The test compound is added in serial dilutions 24-36 h after plating in 0.5% DMSO. The plates are then incubated a further 72 h in the presence of the compound. During this time, cells in control cultures undergo at least three cell divisions.
(§4) 3. After incubation, the media is collected and cells are harvested by trypsinization. The cells and media are pooled and pelleted by centrifugation.
(§5) 4. The cell pellet is fixed in a final volume of 3 mL of 50% ice cold MeOH and incubated for a minimum of 30 min at −20° C.
(§6) 5. The cells are pelleted by centrifugation and resuspended in 0.5 mL PBS containing 1%FCS, […] Propidium Iodide (PI) and 5 mg/mL RNase A and incubated 30 min at 37° C. in the dark.
(§7) 6. The samples are analysed by flow cytometry using the relative incorporation of PI as a measure of DNA content of each cell. The % Dead cells is recorded as % of events with less than 2N DNA.
(§8) HDF are normal diploid fibroblast cells. RKO are colon adenocarcinoma cells and MES/SA are […].

CDK2 = CDK2 (Homo sapiens, UniProt P24941); experiment: Cyclin dependent protein kinase substrate phosphorylation assay, CDK2; format: biochemical
[2] = tested on: MES/SA ovarian carcinoma cells; experiment: FACS assay (cell death by flow cytometry), MES/SA; format: cell-based; settings: 50% cell death, 72 h, read-out: FACS MES/SA IC50
Protocol: as §1, §2, §3, §4, §5, §6, §7, §8

MDA MB468 = experiment: MTT assay, MDA MB468; format: cell-based, human; settings: read-out: MTT MDA MB468 IC50
Protocol: (§9) Compounds are tested for their ability to inhibit cell proliferation and cell viability. The metabolic conversion of 3-(4,5-dimethylthiazol-2-yl)-2,5-diphenyltetrazolium bromide (MTT, Sigma #M2128) to a reduced form is a commonly used measure of cellular viability. Following is the procedure:
(§10) Cells are maintained in 75 cm^2 tissue culture flasks until ready for use. The cells are grown and plated for the assay in Dulbecco's modified Eagle's media (DMEM) containing 10% fetal bovine serum. For example, the following cell lines can be used: a) human foreskin fibroblasts (HFF); b) HT29 (human colon carcinoma cell line); c)MDA-MB-468 (human breast carcinoma cell line); d) RKO (human colon adenocarcinoma cell line); e) SW620 (human colon carcinoma cell line); f) A549 (human lung carcinoma cell line); and g) MIA PACA (human pancreatic carcinoma cell line). Cells are maintained at 37° C. in 10% CO2, 90% humidified air. Cells are plated in 96-well tissue culture plates at the densities listed below. 100 μL of cell suspension is added to each well of the 96-well plate except the top row of the plate which contains no cells and serves as a reference for the spectrophotometer.
(§11) Cells are incubated overnight in DMEM containing 10% fetal bovine serum at 37° C. in 10% CO2, 90% humidified air prior to dosing. […] Compounds with solubilities of less than 30 μM are dosed at the highest soluble concentration. Stock solutions of compounds are made in 100% dimethyl sulfoxide (DMSO). Stock solutions are diluted in DMEM containing 100 μg/ml gentamicin and 0.3 to 0.6% DMSO at the twice the highest concentration to be placed on the cells. If compounds have been dissolved in DMSO the final concentration of DMSO on the cells is kept below 0.3%. Three-fold serial dilutions are performed on each compound to prepare 10 concentrations of the compound for dosing. 100 μl of diluted compound is added to the 100 μl of media currently on the dish. For each concentration of compound, 2-4 replicate wells are prepared.
(§12) Cells are returned to incubator and allowed to proliferate in the presence of compound for 72 h before addition of MTT. MTT is prepared in phosphate buffered saline (Irvine Scientific #9240) at a concentration of 2 mg/ml. 50 μl per well of MTT solution is added to the 200 μl of media to yield a final concentration of 0.4 mg/ml and plates are returned to the incubator for 4 h. After 4 h incubation the media, compound and MTT mixture is aspirated from the plates and 100 μl of 100% DMSO is added to each well in addition to 25 μl of Sorenson's Buffer (0.1M glycine, 0.1M NaCl, pH 10.5). Quantitation of metabolic reduction of MTT in each plate is performed by reading optical density at 570 nm wavelength on a Molecular Devices UVmax microplate reader. Growth inhibition curves and 50% inhibitory concentrations are determined using Microsoft Excel.

[3] = tested on: RKO colon adenocarcinoma cells; experiment: MTT assay, RKO; format: cell-based, human; settings: 72 h, read-out: MTT RKO IC50
Protocol: as §9, §10, §11, §12, §8

[4] = tested on: human diploid fibroblasts (HDF-3); experiment: G1-S progression assay (BrdU incorporation); format: cell-based; settings: read-out: G1/S Chkpt IC50
Protocol: This assay is designed to determine the ability of compounds to inhibit progression of cells from G1 into S-phase. […] The protocol is as follows:
(1) Grow human diploid fibroblasts (HDF-3) in 100 mm tissue culture dish to confluency. (2) Plate 6-7×10^3 cells/well in a 96 well plate in 100 μl of DMEM. (3) After 16-17 h add various dilutions of test compounds (0.045-100 μM). Dilute compound in DMEM containing DMSO and add 100 μl to each well so that the DMSO conc. is 0.6-0.8% in 200 μl final volume. (4) Two h after addition of compound, add 20 ul of 100 μM BrdU (final conc. 10 μM) Make 100 μM solution in DMEM from 10 mM stock solution. (5) After 4 h, add 200 μl PBS to each well and remove the contents of the wells by inverting the plate and soaking on to the paper towel. Repeat the washing step three times, with 400 ul PBS each time. (6) Fix the cells and denature the DNA by adding 200 μl fixation/denaturation solution to each well for 30-40 min. (7) Remove the fixation/denaturation solution by tapping the plate on the paper towel and add 75 ul of anti BrdU peroxidase antibody to each well. (dilute the antibody to 0.1 U/mL from 15 U/mL stock in PBS containing 1% BSA, Fraction V). Incubate the plate O/N at 4° C. (8) Remove the antibody solution and wash wells four times with 400 μl of PBS. Let the wash solution stay for 3-4 min during each wash. (9) Drain the wells and add 100 μl of chemiluminiscence Elisa reagent (Prepare the reagent 15-20 min before use to bring it to rt by mixing 100 parts of reagent A with 1 part of reagent B). (10) Read the plate in a luminometer. Take 2-3 readings within 6-7 min. Perform the following controls:
Deoxybromouridine (BrdU), anti BrdU peroxidase antibodies, fixation/denaturation solution, chemiluminiscence reagent and BSA Fraction V, were obtained from Boehringer Mannheim. The 96-well white plate with clear bottom were purchased from Corning Costar Corporation. Dulbecco's Modified Eagle Medium containing high glucose, L-glutamine and pyridoxine HCl was obtained from GIBCO BRL.

[5] = tested on: HDF normal diploid fibroblast cells; experiment: FACS assay (cell death by flow cytometry), HDF; format: cell-based, human; settings: 50% cell death, 72 h; read-out: FACS HDF IC50
Protocol: as §1, §2, §3, §4, §5, §6, §7, §8

[6] = tested on: HDF normal diploid fibroblast cells; experiment: MTT assay, HDF; format: cell-based, human; settings: 72 h; read-out: MTT HDF IC50
Protocol: as §9
as §10, with “100 μL of cell suspension is added to each well of the 96-well plate except the top row of the plate which contains no cells and serves as a reference for the spectrophotometer.” left out
Cells are returned to incubator and allowed to proliferate in the presence of compound for 72 h before addition of MTT. […] Quantitation of metabolic reduction of MTT in each plate is performed by reading optical density at 570 nm wavelength on a Molecular Devices UVmax microplate reader. Growth inhibition curves and 50% inhibitory concentrations are determined using Microsoft Excel. […]

Sequence of CDK1 (P06493 whole entry, species assumed): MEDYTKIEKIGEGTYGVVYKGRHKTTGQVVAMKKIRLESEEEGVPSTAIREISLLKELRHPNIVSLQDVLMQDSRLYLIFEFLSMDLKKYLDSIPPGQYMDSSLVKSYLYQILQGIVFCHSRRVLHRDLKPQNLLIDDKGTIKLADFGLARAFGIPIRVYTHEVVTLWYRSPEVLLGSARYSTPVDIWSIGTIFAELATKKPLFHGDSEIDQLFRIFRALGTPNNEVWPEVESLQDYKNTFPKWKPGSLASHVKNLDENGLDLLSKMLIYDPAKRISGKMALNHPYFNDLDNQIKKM
Sequence of CDK1 (P14635 whole entry partner, species assumed): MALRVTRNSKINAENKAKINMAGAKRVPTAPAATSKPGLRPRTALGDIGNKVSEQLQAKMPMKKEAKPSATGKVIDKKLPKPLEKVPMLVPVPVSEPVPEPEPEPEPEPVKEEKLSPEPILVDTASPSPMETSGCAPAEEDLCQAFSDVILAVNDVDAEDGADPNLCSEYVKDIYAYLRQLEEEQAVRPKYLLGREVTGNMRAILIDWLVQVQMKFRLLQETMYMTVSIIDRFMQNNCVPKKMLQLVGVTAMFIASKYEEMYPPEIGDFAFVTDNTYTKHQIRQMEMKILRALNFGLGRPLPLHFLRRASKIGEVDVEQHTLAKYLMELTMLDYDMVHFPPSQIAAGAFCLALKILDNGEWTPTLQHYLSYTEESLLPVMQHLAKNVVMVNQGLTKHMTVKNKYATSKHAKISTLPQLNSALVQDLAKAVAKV

Compound | IC50 (CDK1) [nM] | IC50 ([1]; Homo sapiens) [nM] | IC50 (CDK2) [nM] | IC50 (MDA MB468; Homo sapiens, MDA-MB-468, 72 h) [nM] | IC50 ([3]; Homo sapiens) [nM] | other results
CN(C)S(=O)(=O)c1ccc(NC=C2C(=O)Nc3ccc(-c4cnco4)cc32)cc1 [Example 35, N,N-Dimethyl-4-[(5-oxazol-5-yl-2-oxo-1,2-dihydro-indol-3-ylidenemethyl)-amino]-benzenesulfonamide] | 11 to 50 | 1100 to 5000 | 1 to 10 | > 5000 | 1100 to 5000 | IC50 ([2]; Homo sapiens, MES-SA): > 5000 nM
CCC(C)Cc1cccc2c1C(=NNc1ccc(S(N)(=O)=O)cc1)C(=O)N2 (centres unmarked) [Example 11, 4-{N′-[4-(2-methylbutyl)-2-oxo-1,2-dihydro-indol-3-ylidene]-hydrazino}-benzenesulfonamide] | 11 to 50 | 1100 to 5000 | 1 to 10 | – | – | IC50 ([4]; Homo sapiens, Fibroblast): 1100 to 5000 nM
NS(=O)(=O)c1ccc(NN=C2C(=O)Nc3ccc(-c4cnco4)cc32)cc1 [Example 36, 4-[1-(5-Oxazol-5-yl-2-oxo-1,2-dihydro-indol-3-ylidene)-hydrazino]-benzenesulfonamide] | – | – | – | – | – | IC50 [1]: 600 to 1000 nM; IC50 [2]: 100 to 500 nM; IC50 (MDA MB468; 72 h): 600 to 1000 nM; IC50 [3]: 600 to 1000 nM; IC50 [5]: > 5 µM; IC50 [4]: 600 to 1000 nM; IC50 [6]: 1.1 to 5 µM

More lines, main results first:

IC50 (CDK1) [nM] | Compound | IC50 ([1]; Homo sapiens) [nM] | IC50 (CDK2) [nM] | IC50 (MDA MB468; Homo sapiens, MDA-MB-468, 72 h) [nM] | IC50 ([3]; Homo sapiens) [nM] | other results
11 to 50 | COC(=O)c1ccc2c(c1)/C(=C/Nc1ccc(S(N)(=O)=O)cc1)C(=O)N2 [Example 27, 2-Oxo-3-(4-sulfamoyl-phenylamino-methylene)-2,3-dihydro-1H-indole-5-carboxylic acid methyl ester] | – | – | – | – | –
51 to 100 | O=C1Nc2ccc3ncsc3c2C1=CNc1ccc2nn[nH]c2c1 [Example 101, 8-(3H-Benzotriazol-5-ylaminomethylene)-6,8-dihydro-1-thia-3,6-diaza-as-indacene-7-one] | > 5000 | 11 to 50 | 1100 to 5000 | – | –
11 to 50 | CC(C)COC(=O)c1ccc2c(c1)C(=CNc1ccc(S(N)(=O)=O)cc1)C(=O)N2 [Example 103, 2-Oxo-3-(4-sulfamoyl-phenylamino-methylene)-2,3dihydro-1H-indole-5-carboxylic acid isobutyl ester] | – | 1 to 10 | 1100 to 5000 | 1100 to 5000 | –

From patent publication US6541503B2, “Substituted oxindole derivatives as protein tyrosine kinase and as protein serine/threonine kinase inhibitors” (SmithKline Beecham Corporation, priority 1997, dated 2003)
